According to paper PMC12775434, “Ultra-large virtual screening unveils potent agonists of the neuromodulatory orphan receptor GPR139” (Nature Communications, 2025):
Where “and” joins values, the source holds several entries; their conditions need not be identical. Equal entries are not always repeated. Where two headings read alike, the source gives them in different places.

Columns and labels:
Assay type in all cases: cell-based
GPR139 [1] = molecular target: T1, GPR139 (Homo sapiens, UniProt Q6DWJ6); assay: Ca2+ mobilization assay, agonist mode, stable GPR139-CHOk1 cell line; details: for Emax: normalized to Lundbeck Cmp 1a, read-out: Emax (%) Ca2+; for change in potency with larger substituents on the thiophene ring: Ca2+ mobilization
T1 sequence (Q6DWJ6 1-353): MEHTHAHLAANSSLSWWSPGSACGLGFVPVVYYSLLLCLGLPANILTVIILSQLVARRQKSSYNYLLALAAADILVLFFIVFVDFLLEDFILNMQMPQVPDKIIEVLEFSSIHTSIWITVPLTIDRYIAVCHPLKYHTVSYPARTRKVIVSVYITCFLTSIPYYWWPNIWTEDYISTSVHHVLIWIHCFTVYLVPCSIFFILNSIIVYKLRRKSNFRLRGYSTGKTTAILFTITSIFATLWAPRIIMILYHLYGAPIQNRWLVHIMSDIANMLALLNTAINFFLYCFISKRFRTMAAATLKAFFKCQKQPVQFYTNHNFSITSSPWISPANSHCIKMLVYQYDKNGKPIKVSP
Summary of the method: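 Agonist activity of compounds is assessed in stably transfected CHO-K1 cells using the calcium dye Fluo-4 at 37 °C in HEPES-buffered HBSS (pH 7.4). Efficacy is expressed relative to the reference agonist Lundbeck Cmp 1a, set as 100%.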

[2] = molecular target: T2, human muscarinic acetylcholine M1 receptor (M1R) (Homo sapiens, UniProt P11229); assay: Ca2+ mobilization counter-screen in M1R-CHOk1 cells; details: individual replicates (Supplementary Figure 5)
T2 sequence (P11229 1-460): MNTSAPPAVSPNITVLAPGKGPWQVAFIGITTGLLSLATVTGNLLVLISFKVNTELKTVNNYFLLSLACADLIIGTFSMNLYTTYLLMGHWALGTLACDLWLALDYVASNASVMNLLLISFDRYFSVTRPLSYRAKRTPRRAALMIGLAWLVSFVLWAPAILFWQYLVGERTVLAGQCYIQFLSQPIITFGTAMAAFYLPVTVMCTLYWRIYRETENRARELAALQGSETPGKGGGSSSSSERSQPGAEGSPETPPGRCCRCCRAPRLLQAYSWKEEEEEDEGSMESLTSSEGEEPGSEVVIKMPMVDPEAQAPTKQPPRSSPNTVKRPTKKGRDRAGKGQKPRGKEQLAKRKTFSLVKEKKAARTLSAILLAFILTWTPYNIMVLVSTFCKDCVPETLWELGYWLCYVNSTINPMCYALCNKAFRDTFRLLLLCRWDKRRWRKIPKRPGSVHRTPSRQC
Summary of the method: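 Intracellular calcium is tracked by Fluo-4 fluorescence at 37 °C in M1R-CHOk1 cells, with compounds dispensed automatically once baseline is taken. Buffer is HBSS with 20 mM HEPES, pH 7.4, plus 2.5 mM probenecid.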

GPR139 [3] = molecular target: T1, GPR139; assay: Ca2+ mobilization assay, antagonist mode (EC80 800 nM Lundbeck Cmp 1a after 20 min preincubation), GPR139-CHOk1; details: individual replicates (Supplementary Figure 4)
Summary of the method: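 Fluo-4-loaded GPR139-CHOk1 cells in HEPES-buffered HBSS (pH 7.4, 2.5 mM probenecid) given test compounds at 10 µM, then after 20 min challenged with 800 nM Lundbeck Cmp 1a (EC80). Calcium fluorescence read at 37 °C, 485/525 nm.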

[4] = Agonist mode, individual replicates (Supplementary Figure 4)
[5] = Supplementary Table 2, mean ± SEM
[6] = log [Compound] M = -4.5, individual replicate columns
[7] = log [Compound] M = -5.0, individual replicate columns
[8] = log [Compound] M = -5.5, individual replicate columns
[9] = log [Compound] M = -6.0, individual replicate columns
[10] = log [Compound] M = -6.5, individual replicate columns
[11] = log [Compound] M = -7.0, individual replicate columns
[12] = log [Compound] M = -7.5, individual replicate columns
[13] = log [Compound] M = -8.0, individual replicate columns
[14] = log [Compound] M = -8.5, individual replicate columns
[15] = log [Compound] M = -9.0, individual replicate columns
[16] = Supplementary Table 2, mean ± SEM, read-out: pEC50 Ca2+ (converted)

SMILES	Ca2+ signal (% of Cmp 1a) (GPR139 [1]; [4])	EC50 (GPR139 [1]; GPR139-CHOk1, read-out: EC50, Ca2+ mobilization) [nM]	Emax (GPR139 [1]; [5]) [%]	Ca2+ signal (% of Cmp 1a) (GPR139 [1]; [6])	Ca2+ signal (% of Cmp 1a) (GPR139 [1]; [7])	Ca2+ signal (% of Cmp 1a) (GPR139 [1]; [8])	Ca2+ signal (% of Cmp 1a) (GPR139 [1]; [9])	Ca2+ signal (% of Cmp 1a) (GPR139 [1]; [10])	Ca2+ signal (% of Cmp 1a) (GPR139 [1]; [11])	Ca2+ signal (% of Cmp 1a) (GPR139 [1]; [12])	Ca2+ signal (% of Cmp 1a) (GPR139 [1]; [13])	Ca2+ signal (% of Cmp 1a) (GPR139 [1]; [14])	Ca2+ signal (% of Cmp 1a) (GPR139 [1]; [15])	Ca2+ signal (% of Carbachol) [2]	Ca2+ signal (% of Cmp 1a) (GPR139 [3])	change in potency with larger substituents on the thiophene ring (GPR139 [1])	EC50 (GPR139 [1]; [16]) [nM]
Cc1cccc(-c2nc(CC(=O)NC(C)c3ccccc3)no2)c1 (centres unmarked) [Compound 1.3, CC(C1=CC=CC=C1)NC(CC2=NOC(C3=CC(C)=CC=C3)=N2)=O]	106 % of Cmp 1a and 102 % of Cmp 1a and 119 % of Cmp 1a	100	109 ± 6	95 % of Cmp 1a and 109 % of Cmp 1a and 110 % of Cmp 1a and 97 % of Cmp 1a	91 % of Cmp 1a (2×) and 123 % of Cmp 1a and 104 % of Cmp 1a	80 % of Cmp 1a and 126 % of Cmp 1a and 100 % of Cmp 1a and 85 % of Cmp 1a	76 % of Cmp 1a and 101 % of Cmp 1a and 90 % of Cmp 1a and 71 % of Cmp 1a	55 % of Cmp 1a and 89 % of Cmp 1a and 72 % of Cmp 1a and 60 % of Cmp 1a	36 % of Cmp 1a and 68 % of Cmp 1a and 56 % of Cmp 1a and 52 % of Cmp 1a	12 % of Cmp 1a and 48 % of Cmp 1a (2×) and 34 % of Cmp 1a	5.33 % of Cmp 1a and 18 % of Cmp 1a and 26 % of Cmp 1a and 21 % of Cmp 1a	5 % of Cmp 1a and 3.67 % of Cmp 1a and 12 % of Cmp 1a and 9 % of Cmp 1a	-3 % of Cmp 1a and 12 % of Cmp 1a and 5.67 % of Cmp 1a and 8 % of Cmp 1a	24 % of Carbachol and -2 % of Carbachol and 12 % of Carbachol	13 % of Cmp 1a and 0.333 % of Cmp 1a and -11 % of Cmp 1a	–	–
Cc1cnc2ccc(-c3nc(CC(=O)NC(C)c4ccccc4)no3)cn12 (centres unmarked) [Compound 1.40, CC(NC(=O)CC1=NOC(=N1)C=2C=CC3=NC=C(C)N3C2)C=4C=CC=CC4]	51 % of Cmp 1a and 56 % of Cmp 1a	–	86 ± 7	93 % of Cmp 1a and 71 % of Cmp 1a and 89 % of Cmp 1a	80 % of Cmp 1a and 64 % of Cmp 1a and 78 % of Cmp 1a	57 % of Cmp 1a and 35 % of Cmp 1a and 53 % of Cmp 1a	32 % of Cmp 1a and 13 % of Cmp 1a and 17 % of Cmp 1a	17 % of Cmp 1a and -10 % of Cmp 1a and -16 % of Cmp 1a	21 % of Cmp 1a and -2.33 % of Cmp 1a and -20 % of Cmp 1a	0 % of Cmp 1a and 1.33 % of Cmp 1a and 22 % of Cmp 1a	11 % of Cmp 1a and 0.667 % of Cmp 1a and 28 % of Cmp 1a	16 % of Cmp 1a and -6.33 % of Cmp 1a and 31 % of Cmp 1a	20 % of Cmp 1a and -7 % of Cmp 1a and 0.667 % of Cmp 1a	-14 % of Carbachol and -5 % of Carbachol and -4.33 % of Carbachol	23 % of Cmp 1a and 31 % of Cmp 1a and 12 % of Cmp 1a	three-fold reduction to a complete loss of activity	3160
Cc1c(-c2nc(CC(=O)NC(C)c3ccccc3)no2)sc2nccn12 (centres unmarked) [Compound 1.21, CC(C1=CC=CC=C1)NC(CC2=NOC(C3=C(C)N4C=CN=C4S3)=N2)=O]	51 % of Cmp 1a and 103 % of Cmp 1a and 63 % of Cmp 1a	–	88 ± 6	99 % of Cmp 1a and 106 % of Cmp 1a and 96 % of Cmp 1a and 82 % of Cmp 1a and 98 % of Cmp 1a	106 % of Cmp 1a and 89 % of Cmp 1a and 74 % of Cmp 1a and 87 % of Cmp 1a and 93 % of Cmp 1a	113 % of Cmp 1a and 82 % of Cmp 1a and 55 % of Cmp 1a and 93 % of Cmp 1a and 79 % of Cmp 1a	58 % of Cmp 1a and 46 % of Cmp 1a and 13 % of Cmp 1a and 61 % of Cmp 1a and 35 % of Cmp 1a	30 % of Cmp 1a and 22 % of Cmp 1a and -9 % of Cmp 1a and 34 % of Cmp 1a and 9 % of Cmp 1a	11 % of Cmp 1a and 3.59 % of Cmp 1a and -6 % of Cmp 1a and 13 % of Cmp 1a and 2 % of Cmp 1a	-0.321 % of Cmp 1a and 1.12 % of Cmp 1a and 16 % of Cmp 1a and 9 % of Cmp 1a and 1.36 % of Cmp 1a	-0.311 % of Cmp 1a and 5 % of Cmp 1a and 16 % of Cmp 1a and 8 % of Cmp 1a and 4 % of Cmp 1a	-0.779 % of Cmp 1a and 5.49 % of Cmp 1a and -3.74 % of Cmp 1a and 4.43 % of Cmp 1a and 2.79 % of Cmp 1a	6.41 % of Cmp 1a and 9 % of Cmp 1a and -8 % of Cmp 1a and 7.41 % of Cmp 1a and -0.105 % of Cmp 1a	-6 % of Carbachol and -2 % of Carbachol and -1.22 % of Carbachol	8 % of Cmp 1a and 24 % of Cmp 1a and 21 % of Cmp 1a	three-fold reduction to a complete loss of activity	1260
